Structures can show the parent of a compound that is named as a salt. Where two headings read alike, the source gives them in different places.
Experiments:
clinical [1] = conditions: human, in vivo
[2] = imatinib in plasma, MAD Day 7, mean
clinical [3] = conditions: human, plasma; for AUC / AUC(0-t) / Cmax: inhaled or intranasal; for Cmax / concentration at 7 day: imatinib in plasma, mean; for concentration at 7 day: inhaled

SMILES: Cc1ccc(NC(=O)c2ccc(CN3CCN(C)CC3)cc2)cc1Nc1nccc(-c2cccnc2)n1 [AV-101, imatinib]
- AUC(0-t) (clinical [1]; inhaled or intranasal, 1 mg): 9.9 ng·h/mL
- Cmax (clinical [1]; inhaled or intranasal, 1 mg): 1.16 ng/mL
- Tmax (clinical [1]; inhaled or intranasal, 1 mg): 3 h
- AUC(0-t) (clinical [1]; inhaled or intranasal, 3 mg): 65.4 ng·h/mL
- Cmax (clinical [1]; inhaled or intranasal, 3 mg): 3.81 ng/mL
- AUC(0-t) (clinical [1]; inhaled or intranasal, 10 mg): 319 ng·h/mL
- Cmax (clinical [1]; inhaled or intranasal, 10 mg): 20.2 ng/mL
- Tmax (clinical [1]; inhaled or intranasal, 10 mg): 0.18 h
- AUC(0-t) (clinical [1]; inhaled or intranasal, 30 mg): 1280 ng·h/mL
- Cmax (clinical [1]; inhaled or intranasal, 30 mg): 73.8 ng/mL
- AUC(0-t) (clinical [1]; inhaled or intranasal, 90 mg): 6670 ng·h/mL
- Cmax (clinical [1]; inhaled or intranasal, 90 mg): 424 ng/mL
- Fluctuation ([2]; inhaled 10 mg AV-101 BID): 78.28%
- Fluctuation ([2]; inhaled 30 mg AV-101 BID): 70.30%
- Fluctuation ([2]; inhaled 90 mg AV-101 BID): 67.18%
- AUC (clinical [3]; 10 mg): 590 ng·h/mL
- AUC(0-t) (clinical [3]; 10 mg): 182 ng·h/mL
- Cmax (clinical [3]; 10 mg, MAD Day 1, inhaled 10 mg AV-101): 24.1 ng/mL
- Cmax (clinical [3]; 10 mg, ss, MAD Day 7, inhaled 10 mg AV-101 BID): 69.2 ng/mL
- AUC (clinical [3]; 30 mg): 1920 ng·h/mL
- AUC(0-t) (clinical [3]; 30 mg): 673 ng·h/mL
- Cmax (clinical [3]; 30 mg, MAD Day 1, inhaled 30 mg AV-101): 88.7 ng/mL
- Cmax (clinical [3]; 30 mg, ss, MAD Day 7, inhaled 30 mg AV-101 BID): 215 ng/mL
- AUC (clinical [3]; 90 mg): 7970 ng·h/mL
- AUC(0-t) (clinical [3]; 90 mg): 2210 ng·h/mL
- Cmax (clinical [3]; 90 mg, MAD Day 1, inhaled 90 mg AV-101): 262 ng/mL
- Cmax (clinical [3]; 90 mg, ss, MAD Day 7, inhaled 90 mg AV-101 BID): 890 ng/mL
- concentration at 7 day (clinical [3]; 10 mg, Cav, MAD Day 7, inhaled 10 mg AV-101 BID): 49.1 ng/mL
- concentration at 7 day (clinical [3]; 10 mg, Cmin, ss, MAD Day 7, inhaled 10 mg AV-101 BID): 31.7 ng/mL
- concentration at 7 day (clinical [3]; 30 mg, Cav, MAD Day 7, inhaled 30 mg AV-101 BID): 160 ng/mL
- concentration at 7 day (clinical [3]; 30 mg, Cmin, ss, MAD Day 7, inhaled 30 mg AV-101 BID): 118 ng/mL
- concentration at 7 day (clinical [3]; 90 mg, Cav, MAD Day 7, inhaled 90 mg AV-101 BID): 664 ng/mL
- concentration at 7 day (clinical [3]; 90 mg, Cmin, ss, MAD Day 7, inhaled 90 mg AV-101 BID): 534 ng/mL

SMILES: Cc1ccc(NC(=O)c2ccc(CN3CCN(C)CC3)cc2)cc1Nc1nccc(-c2cccnc2)n1 [Imatinib, imatinib mesylate, reference compound]
- AUC(0-t) (clinical [1]; po, 400 mg): 32700 ng·h/mL
- Cmax (clinical [1]; po, 400 mg): 1710 ng/mL

From patent US20240325390A1 (Aerovate Therapeutics, Inc., priority 2020, published 2024)
